ChEMBL document CHEMBL5608224, “Novel KRAS Inhibitors for Treating Non-small Cell Lung Cancer” (ACS Med Chem Lett, 2024)

Experiment: Inhibition of recombinant GMPPNP-loaded KRAS-G12C mutant (unknown origin) /recombinant GST-tagged RAF RBD (unknown origin) complex assessed as disruption preincubated with KRAS G12C for 20 mins followed by RAF addition and measured after 20 mins by HTRF assay
Set-up: species or system Homo sapiens

Row | Structure (SMILES) | IC50 [nM]
1 | C#Cc1c(F)ccc2cc(O)cc(-c3ccc4c(N5CCN(C(=O)/C(F)=C/c6ccccn6)CC5)nc(OC[C@@]56CCCN(C)[C@]5(C)CCC6)nc4c3F)c12 | 6.4
2 | CN1CCC[C@H]1COc1nc(N2CCN(C(=O)/C(F)=C/c3nccs3)[C@@H](CC#N)C2)c2ccc(-c3cc(O)cc4ccccc34)c(F)c2n1 | 16
3 | C#Cc1c(F)ccc2cc(O)cc(-c3ccc4c(N5CCN(C(=O)/C(F)=C/c6nccs6)CC5)nc(OC[C@@]56CCCN5C[C@H](F)C6)nc4c3F)c12 | 2
4 | C#Cc1cccc2cccc(-c3ccc4c(N(C)[C@@H]5CCN(C(=O)/C(F)=C/c6ccccn6)C5)nc(OC[C@@]56CCCN5C[C@H](F)C6)nc4c3F)c12 | 20
5 | N#CC[C@H]1CN(c2nc(OC[C@@]34CCCN3C[C@H](F)C4)nc3c(F)c(-c4cc(O)cc5ccccc45)ccc23)CCN1C(=O)/C(F)=C/c1ncccn1 | 11
6 | CN1CCC[C@H]1COc1nc(N2CCN(C(=O)/C(F)=C/c3ncccn3)[C@@H](CC#N)C2)c2ccc(-c3cc(O)cc4ccccc34)c(F)c2n1 | 10
